Laboratory results: PubChem BioAssay (NCI)
Where “and” joins values, the source holds several entries; their conditions need not be identical. Identical values can stand only once.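 48-hour exposure; five concentrations; linearly interpolated endpoints. GI50 is the concentration that inhibits growth by half. TGI is the concentration that stops growth completely.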

Assays:
Assay in all cases: NCI-60 cell line screen, 48 h
MOLT-4 leukemia = tested on: MOLT-4 leukemia
UACC-257 melanoma = tested on: UACC-257 melanoma
SR leukemia = tested on: SR leukemia
UO-31 renal = tested on: UO-31 renal
DU-145 prostate = tested on: DU-145 prostate
UACC-62 melanoma = tested on: UACC-62 melanoma
MALME-3M melanoma = tested on: MALME-3M melanoma
BT-549 breast = tested on: BT-549 breast
A498 renal = tested on: A498 renal
OVCAR-3 ovarian = tested on: OVCAR-3 ovarian

Row | Structure (SMILES) | GI50 (MOLT-4 leukemia) | TGI (MOLT-4 leukemia) | GI50 (UACC-257 melanoma) | TGI (UACC-257 melanoma) | GI50 (SR leukemia) | TGI (SR leukemia) | GI50 (UO-31 renal) | TGI (UO-31 renal) | GI50 (DU-145 prostate) | TGI (DU-145 prostate) | GI50 (UACC-62 melanoma) | TGI (UACC-62 melanoma) | GI50 (MALME-3M melanoma) | TGI (MALME-3M melanoma) | GI50 (BT-549 breast) | TGI (BT-549 breast) | GI50 (A498 renal) | TGI (A498 renal) | GI50 (OVCAR-3 ovarian) | TGI (OVCAR-3 ovarian)
1 | OC(COc1cccc2ccccc12)CN1CCN(c2ccccc2Cl)CC1 (stereo unspecified) | 12.6 µM | 59.5 µM | 16.5 µM | 31 µM | 13.5 µM | 40.4 µM | 4.17 µM | 18.7 µM | 14.6 µM | 28.5 µM | 12.2 µM | 24.8 µM | 10.3 µM | 25.9 µM | 12.9 µM | 26.3 µM | 12.3 µM | 24.9 µM | 13.9 µM | 27.6 µM
2 | O=C(CCl)Nc1cc(O)c2c(c1)C(=O)c1cccc(O)c1C2=O | 0.321 µM | 1.76 µM | 2.52 µM | 6.41 µM | 0.346 µM | 2.86 µM | 1.39 µM | 2.71 µM | 1.56 µM | 2.94 µM | 1.47 µM | 3.84 µM | 0.897 µM | 2.58 µM | 1.24 µM | 3.3 µM | 3.17 µM | 36.6 µM | 1.23 µM | 2.49 µM
3 | COc1ccc2c(c1)CC[C@@H]1[C@@H]2CC[C@]2(C)C=C(/C=C/C(=O)c3ccccc3)C[C@@H]12 | 16.5 µM | 54.5 µM | 16.2 µM | 34.6 µM | 16.6 µM | 47.4 µM | 15.2 µM | 30.1 µM | 14.6 µM | 28.4 µM | 13.8 µM | 27.2 µM | 14 µM | 30.1 µM | 17.3 µM | 32.7 µM | 13.3 µM | 26.3 µM | 16.2 µM | 31.7 µM
4 | C1CC[N-]CC1.CC(=N\O)/C(C)=N/O.CC(=N\O)/C(C)=N/O.[CH2-]CCN1CCOCC1.[Co+2] | 5.91 µM | 39.5 µM | 98.1 µM | > 100 µM | 6.1 µM | > 100 µM | > 100 µM | > 100 µM | > 100 µM | > 100 µM | > 100 µM | > 100 µM | > 100 µM | > 100 µM | > 100 µM | > 100 µM | > 100 µM | > 100 µM | > 100 µM | > 100 µM
5 | COc1cc(/C=N\O)nc(-c2ccccn2)c1 |  | > 100 µM |  | > 100 µM |  | 0.453 µM |  | 3.13 µM |  | > 100 µM |  | 8.28 µM |  | > 100 µM |  | > 100 µM |  | 9.22 µM |  | > 100 µM
6 | COc1cc(C2c3cc4c(cc3[C@@H](Nc3ccc(N)cc3)C3COC(=O)[C@H]23)OCO4)cc(OC)c1O (stereo partly specified) | 0.175 µM and 0.0292 µM | 0.8 µM and 0.825 µM |  | 28 µM | 0.151 µM | 0.682 µM and 6.81 µM | 0.727 µM | 4.79 µM |  |  | 0.711 µM | 11.3 µM | 0.849 µM | 19.7 µM |  | 8.5 µM | 0.781 µM | 6.39 µM |  | 20 µM
7 | O=C1c2ccn(CCCCN3CCC(O)CC3)c2C(=O)c2c1c(O)c1ccccc1c2O |  |  | 17.3 µM | > 64.1 µM | > 100 µM | > 100 µM | 2.4 µM | 11.9 µM | 7.98 µM |  | 2.13 µM | 5.36 µM | 16.5 µM | 41.8 µM | 13.2 µM | 51.6 µM | 23.7 µM | 55.4 µM | 2.24 µM | 4.95 µM
8 | Cc1cc(O)c(C(c2ccncc2)c2c(O)cc(C)[nH]c2=O)c(=O)[nH]1 |  | > 100 µM |  | > 100 µM |  | > 100 µM |  | > 100 µM |  | > 100 µM |  | > 100 µM |  | > 100 µM |  | > 100 µM |  |  |  | > 100 µM
9 | Cc1ccc2c(c1)C(=O)c1c-2n(CCCN=[N+]=[N-])c(=O)c2cc([N+](=O)[O-])ccc12 | 17.8 µM | 70.4 µM | > 100 µM | > 100 µM | 8.21 µM | 63.1 µM | 69 µM | > 100 µM | > 100 µM | > 100 µM | 30.3 µM | > 100 µM |  |  | > 100 µM | > 100 µM | > 100 µM | > 100 µM | > 100 µM | > 100 µM
10 | O=C(c1ccccc1)C1C(C(=O)c2ccccc2)C(c2ccccc2)N(c2ccccc2)C1c1ccccc1 (stereo unspecified) |  | > 100 µM |  | > 100 µM |  | > 100 µM |  | > 100 µM |  | > 100 µM |  | > 100 µM |  | > 100 µM |  | > 100 µM |  |  |  | > 100 µM
11 | O=C(CC(=O)c1ccccc1)c1ccccc1 | 17.3 µM | > 100 µM | 23.6 µM | 84.5 µM | 11.7 µM | > 100 µM | 36.5 µM | > 100 µM | 11.9 µM | 65.3 µM | 21.7 µM | 77.5 µM | 23.2 µM | 64.1 µM | 9.37 µM | 34.3 µM |  |  | 16.2 µM | 53.5 µM
12 | CCOC(=O)/C(C#N)=C/Nc1ccc(-c2nc3ccccc3[nH]2)cc1 | 35.1 µM | > 100 µM | 62.1 µM | > 100 µM | 40.8 µM | > 100 µM | 21.1 µM | > 100 µM | 66.6 µM | > 100 µM | 18.7 µM | 62.4 µM |  |  | 34.1 µM | 85.5 µM |  |  | 20.4 µM | 51.6 µM
13 | COC(=O)[C@]12CC[C@@H](C)[C@H](C)[C@@H]1C1=CC[C@@H]3[C@@]4(C)CC(=O)[C@H](OC(=O)c5ccco5)[C@@]5(C)COC(=C45)C[C@@]3(C)[C@]1(C)CC2 | 0.669 µM | > 100 µM | 0.352 µM | 2.93 µM | 0.371 µM | > 100 µM | 1.7 µM | > 100 µM | 9.04 µM | > 100 µM |  |  | 0.556 µM | > 100 µM | 2.91 µM | > 100 µM | 13.3 µM | > 100 µM | 2.74 µM | > 100 µM
14 | Cc1sc2ncn(Cc3ccc(Cl)c(Cl)c3)c(=O)c2c1C | 79.3 µM | > 100 µM | 78.8 µM | > 100 µM | 29.8 µM | > 100 µM | 31.4 µM | > 100 µM | 44.3 µM | > 100 µM | 13.2 µM | > 100 µM |  |  | 58.9 µM | > 100 µM | 35.7 µM | > 100 µM | 8.04 µM | 38.3 µM
15 | CN(C)CCNc1nc2ccccc2c2c(=O)c3ccccc3sc12 | 2.22 µM | 6.1 µM | 1.76 µM | 3.53 µM | 1.66 µM | 4.69 µM | 1.08 µM | 3.37 µM | 2.31 µM | 6.83 µM | 1.73 µM | 3.68 µM | 1.86 µM | 4.05 µM | 1.88 µM | 3.67 µM |  |  | 2.06 µM | 5.46 µM
16 | CCOC(=S)SCN1C(=O)c2ccccc2S1(=O)=O | 32.7 µM | > 100 µM | 18.5 µM | 55.2 µM |  |  | 14.3 µM | 29.4 µM | 16.5 µM | 34.2 µM | 20 µM | 38 µM | 1.94 µM | 8.76 µM | 16 µM | 38.4 µM | 19.8 µM | 42 µM | 0.0358 µM | 17.3 µM
17 | Cc1cc(O)cc2c1c(=O)c1ccccc1n2C |  | > 100 µM |  | > 100 µM |  | > 100 µM |  | > 100 µM |  | > 100 µM |  | > 100 µM |  |  |  | > 100 µM |  | > 100 µM |  | > 100 µM
18 | Nc1c(C(=O)Nc2cccc(Br)c2)sc2nc3c(cc12)C(O)CCC3 (stereo unspecified) | 0.518 µM | 98 µM |  |  | 0.228 µM | > 46 µM | 0.685 µM | 40.3 µM | 0.455 µM | 22.4 µM | 0.41 µM | > 94.9 µM | 0.522 µM | > 87.1 µM | 0.972 µM | > 75.3 µM | 0.207 µM | 3.91 µM | 0.32 µM | 3.08 µM
19 | COc1ccc(/C=N/N=C(\[O-])c2ccncc2)cc1F.COc1ccc(/C=N\N=C(/[O-])c2ccncc2)cc1F.[Cu+2] | 26 µM | > 100 µM | 17.9 µM | 40.2 µM | 16.8 µM | 69.6 µM | 64.4 µM | > 100 µM | 32 µM | > 100 µM | 23.8 µM | 52.8 µM | 25.9 µM | > 100 µM | 20.5 µM | 37.1 µM |  |  | 27.3 µM | 82.9 µM
20 | Cc1nnc(-c2ccc(-c3nc4ccccc4o3)cc2)o1 |  |  | 34.7 µM | 90.7 µM | 25.8 µM | 68 µM | > 100 µM | > 100 µM | 42.2 µM | > 100 µM | 36.8 µM | > 100 µM |  |  | 65.5 µM | > 100 µM |  |  | > 100 µM | > 100 µM
21 | c1ccc2nc(OCCN3CC3)ccc2c1 | 4.04 µM | 59 µM | 16.5 µM | 32.8 µM |  |  | 6.39 µM | 25 µM | 14.8 µM | 28 µM | 13 µM | 34.1 µM | 16.6 µM | 43.6 µM | 20.7 µM | 37.7 µM | 14.2 µM | 30 µM | 6.29 µM | 22.1 µM
